Results published in US9233940B2, “Cyclic peptidomimetic compounds as immunomodulators” (Aurigene Discovery Technologies Limited, priority 2014, dated 2016).

Target: T1, recombinant mouse PD-L1 (Mus musculus, UniProt Q9EP73)
T1 construct: purchased R&D Systems 1019-B7-100
Test: Rescue of mouse splenocyte proliferation in the presence of recombinant PD-L1 (CFSE proliferation assay)
Format: cell-based
Conditions: 72 h, 100 nM compound; CFSE-labelled mouse splenocytes + anti-CD3/CD28 + PD-L1, 72 h; normalised to stimulated splenocytes as 100%; read-out: Percent rescue of splenocyte proliferation @ 100 nM compound concentration
Procedure: Rescue of Mouse Splenocyte Proliferation in the Presence of Recombinant PD-L1
Recombinant mouse PD-L1 (rm-PDL-1, cat no: 1019-B7-100; R&D Systems) were used as the source of PD-L1.
Mouse splenocytes harvested from 6-8 weeks old C57 BL6 mice; RPMI 1640 (GIBCO, Cat #11875); DMEM with high glucose (GIBCO, Cat # D6429); Fetal Bovine Serum [Hyclone, Cat # SH30071.03]; Penicillin (10000 unit/ml)-Streptomycin(10,000 μg/ml) Liquid (GIBCO, Cat #15140-122); MEM Sodium Pyruvate solution 100 mM (100×), Liquid (GIBCO, Cat #11360); Nonessential amino acid (GIBCO, Cat #11140); L-Glutamine (GIBCO, Cat #25030); Anti-CD3 antibody (eBiosciences-16-0032); Anti-CD28 antibody (eBiosciences-16-0281); ACK lysis buffer (1 mL) (GIBCO, Cat #-A10492); Histopaque (density-1.083 gm/mL) (SIGMA 10831); Trypan blue solution (SIGMA-T8154); 2 mL Norm Ject Luer Lock syringe—(Sigma 2014-12); 40 μm nylon cell strainer (BD FALCON 35230); Hemacytometer (Bright line-SIGMA Z359629); FACS Buffer (PBS/0.1% BSA): Phosphate Buffered Saline (PBS) pH 7.2 (HiMedia TS1006) with 0.1% Bovine Serum Albumin (BSA) (SIGMA A7050) and sodium azide (SIGMA 08591); 5 mM stock solution of CFSE: CFSE stock solution was prepared by diluting lyophilized CFSE with 180 μL of Dimethyl sulfoxide (DMSO C2H6SO, SIGMA-D-5879) and aliquoted in to tubes for further use. Working concentrations were titrated from 10 μm to 1 μm. (eBioscience-650850-85); 0.05% Trypsin and 0.02% EDTA (SIGMA 59417C); 96-well format ELISA plates (Corning CLS3390); BD FACS caliber (E6016); Recombinant mouse B7-H1/PDL1 Fc Chimera, (rm-PD-L1 cat no: 1019-B7-100).
Splenocytes harvested in a 50 mL falcon tube by mashing mouse spleen in a 40 μm cell strainer were further treated with 1 ml ACK lysis buffer for 5 mins at room temperature. After washing with 9 mL of RPMI complete media, cells were re-suspended in 3 ml of 1×PBS in a 15 mL tube. 3 mL of Histopaque was added carefully to the bottom of the tube without disturbing overlaying splenocyte suspension. After centrifuging at 800×g for 20 min. at room temperature, the opaque layer of splenocytes was collected carefully without disturbing/mixing the layers. Splenocytes were washed twice with cold 1×PBS followed by total cell counting using Trypan Blue exclusion method and used further for cell based assays.
Splenocytes were cultured in RPMI complete media (RPMI+10% fetal bovine serum+1 mM sodium pyruvate+10,000 units/mL penicillin and 10,000 μg/mL streptomycin) and maintained in a CO2 incubator with 5% CO2 at 37° C.
CFSE is a dye that passively diffuses into cells and binds to intracellular proteins. 1×10^6 cells/ml of harvested splenocytes were treated with 5 μm of CFSE in pre-warmed 1×PBS/0.1% BSA solution for 10 mins at 37° C. Excess CFSE was quenched using 5 volumes of ice-cold culture media to the cells and incubated on ice for 5 min. CFSE labelled splenocytes were further given three washes with ice cold complete RPMI media. CFSE labelled 1×10^5 splenocytes added to wells containing either MDA-MB231 cells (1×10^5 cells cultured in high glucose DMEM medium) or recombinant human PDL-1 (100 ng/mL) and test compounds. Splenocytes were stimulated with anti-mouse CD3 and anti-mouse CD28 antibody (1 μg/mL each), and the culture was further incubated for 72 h at 37° C. with 5% CO2. Cells were harvested and washed thrice with ice cold FACS buffer and % proliferation was analysed by flow cytometry with 488 nm excitation and 521 nm emission filters.
Percent splenocyte proliferation was analysed using cell quest FACS program and percent rescue of splenocyte proliferation by compound was estimated after deduction of % background proliferation value and normalising to % stimulated splenocyte proliferation (positive control) as 100%.
Background proliferation: Splenocytes+anti-CD3/CD28+PD-L1
Stimulated splenocytes: Splenocytes+anti-CD3/CD28 stimulation
Compound proliferation: Splenocytes+anti-CD3/CD28+PD-L1+Compound […]

T1 sequence (Q9EP73 with tags, fused parts or gaps limits assumed): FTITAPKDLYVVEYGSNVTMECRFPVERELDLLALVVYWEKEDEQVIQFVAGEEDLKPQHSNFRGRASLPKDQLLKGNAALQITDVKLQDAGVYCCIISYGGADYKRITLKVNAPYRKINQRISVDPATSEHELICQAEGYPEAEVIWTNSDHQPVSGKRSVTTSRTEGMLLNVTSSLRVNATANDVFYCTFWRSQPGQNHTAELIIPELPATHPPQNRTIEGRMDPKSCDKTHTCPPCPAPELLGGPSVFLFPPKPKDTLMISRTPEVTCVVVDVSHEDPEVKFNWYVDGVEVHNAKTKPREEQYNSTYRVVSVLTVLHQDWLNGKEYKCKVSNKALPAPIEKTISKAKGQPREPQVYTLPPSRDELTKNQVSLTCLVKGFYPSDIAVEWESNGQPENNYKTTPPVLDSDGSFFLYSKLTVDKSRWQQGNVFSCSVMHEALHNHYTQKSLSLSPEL

Compared with NC(=O)C[C@@H]1NC(=O)N[C@@H](CC(=O)O)C(=O)NCCOCCOCC(=O)N[C@@H](CO)C(=O)NNC1=O [Compound 8], NC(=O)C[C@@H]1NC(=O)N[C@H](CO)C(=O)NCCOCCOCC(=O)N[C@@H](CO)C(=O)NNC1=O [Compound 9] is higher in activity at 0.1 µM: 68% for the first, 73% for the second.

First: CC(O)[C@H]1NC(=O)COCCOCCNC(=O)[C@@H](CO)NC(=O)N[C@H](CC(N)=O)C(=O)NNC1=O (stereo partly drawn) [Compound 2]
Second: CC(O)[C@@H]1NC(=O)N[C@@H](CC(N)=O)C(=O)NNC(=O)[C@H](CO)NC(=O)COCCOCCNC1=O (stereo partly drawn) [Compound 1]
The activity at 0.1 µM of the first is lower: 94% for the first, 95% for the second.

Going from CC(O)[C@H]1NC(=O)COCCOCCNC(=O)[C@@H](CO)NC(=O)N[C@H](CC(N)=O)C(=O)N(C)NC1=O (stereo partly drawn) [Compound 3] to CC(O)[C@@H]1NC(=O)N[C@H](CC(N)=O)C(=O)NNC(=O)[C@@H](C(C)O)NC(=O)COCCOCCNC1=O (stereo partly drawn) [Compound 10], the activity at 0.1 µM rises from 58% to 89%.

First: CC(O)[C@H]1NC(=O)CCCCCCNC(=O)[C@@H](CO)NC(=O)N[C@H](CC(N)=O)C(=O)NNC1=O (stereo partly drawn) [Compound 4]
Second: CCC(C)[C@@H]1NC(=O)N[C@@H](CC(N)=O)C(=O)NNC(=O)[C@H](CO)NC(=O)COCCOCCNC1=O (stereo partly drawn) [Compound 5]
The activity at 0.1 µM of the first is lower: 49% for the first, 53% for the second.

Same assay, conditions: CFSE-labelled mouse splenocytes + anti-CD3/CD28 + PD-L1, 72 h, normalised to stimulated splenocytes as 100%

For NC(=O)C[C@@H]1NC(=O)N[C@H](CO)C(=O)NCCOCCOCC(=O)N[C@@H](CO)C(=O)NNC1=O [Compound 12], the “Percent rescue of splenocyte proliferation @ 100 nM compound concentration” value was 91.
